Data on eight compounds can be found in PubChem BioAssay AID308 (DTP/NCI, 2004).

“And” between values parts separate entries of the source, which are not always exact repeats. Identical values can stand only once. Toxic doses and inconclusive results are not listed.

The subject of this assay is BDF1 mice, L1210 6-MP/6-TG resistant leukemia ip, survival T/C. In words: NCI In Vivo Anticancer Drug Screen. Data for tumor model L1210 Leukemia resistant to 6-MP and 6-Thioguanine; NSC 755, NSC 752 (intraperitoneal) in B6D2F1 (BDF1) mice. Conditions: endpoint: mean survival time, higher = longer survival. As to the method: The antitumor activity of compounds was measured in mice bearing transplantable tumors. Survival or tumor size were measured and the results are expressed as the measurement made in the treated group (T) divided by the measurement made in the vehicle treated control group (C). The tumor model used in this assay is L1210 Leukemia resistant to 6-MP and 6-Thioguanine; NSC 755, NSC 752 (intraperitoneal) in B6D2F1 (BDF1) mice

Setting [1] is: dose: 37.5 mg/kg/injection, schedule: Q01DX Z (ip), vehicle: carboxymethylcellulose (CMC).
Where [2] appears, read: dose: 75.0 mg/kg/injection, schedule: Q01DX Z (ip), vehicle: carboxymethylcellulose (CMC).

Turning to `CC(C)Cn1cnc2c(=S)nc(N)[nH]c21`, the T/C is 107 % of control (dose: 9.0 mg/kg/injection, schedule: Q01DX015 (ip), vehicle: other); 106 % of control (dose: 14.0 mg/kg/injection, schedule: Q01DX015 (ip), vehicle: other); 102 % of control (dose: 21.0 mg/kg/injection, schedule: Q01DX015 (ip), vehicle: other); 95 % of control (dose: 36.0 mg/kg/injection, schedule: Q01DX015 (ip), vehicle: other).

`Cn1c(N)nc2nc[nH]c2c1=S`: the T/C was 98 % of control (dose: 18.75 mg/kg/injection, schedule: Q01DX Z (ip), vehicle: carboxymethylcellulose (CMC)); 109 % of control under setting [1]; 109 % of control under setting [2].

With `O[C@H](CN1CC1)[C@@H](O)CN1CC1`, the T/C is 253 % of control (dose: 0.25 mg/kg/injection, schedule: Q01DX Z (ip), vehicle: saline); 91 % of control (dose: 1.0 mg/kg/injection, schedule: Q01DX Z (ip), vehicle: saline); 156 % of control (dose: 90.0 micrograms/kg/injection, schedule: Q01DX Z (ip), vehicle: saline); 121 % of control (dose: 180.0 micrograms/kg/injection, schedule: Q01DX Z (ip), vehicle: saline); 120 % of control (dose: 370.0 micrograms/kg/injection, schedule: Q01DX Z (ip), vehicle: saline).

In the case of `Cn1cnc2c(SCc3ccccc3)ncnc21`, the T/C was 100 % of control (dose: 12.5 mg/kg/injection, schedule: Q01DX Z (ip), vehicle: carboxymethylcellulose (CMC)); 107 % of control (dose: 25.0 mg/kg/injection, schedule: Q01DX Z (ip), vehicle: carboxymethylcellulose (CMC)); 100 % of control (dose: 50.0 mg/kg/injection, schedule: Q01DX Z (ip), vehicle: carboxymethylcellulose (CMC)); 87 % of control (dose: 93.0 mg/kg/injection, schedule: Q01DX Z (ip), vehicle: carboxymethylcellulose (CMC)); 102 % of control (dose: 100.0 mg/kg/injection, schedule: Q01DX Z (ip), vehicle: carboxymethylcellulose (CMC)); 98 % of control (dose: 187.0 mg/kg/injection, schedule: Q01DX Z (ip), vehicle: carboxymethylcellulose (CMC)). In addition, the T/C (dose: 250.0 mg/kg/injection, schedule: Q01DX Z (ip), vehicle: carboxymethylcellulose (CMC)) is 92 % of control.

As for `COc1cc([C@@H]2c3cc4c(cc3[C@H](O)[C@H]3COC(=O)[C@@H]23)OCO4)cc(OC)c1OC`, the T/C (dose: 10.0 mg/kg/injection, schedule: Q01DX Z (ip), vehicle: carboxymethylcellulose (CMC)) was 124 % of control and the T/C (dose: 40.0 mg/kg/injection, schedule: Q01DX Z (ip), vehicle: carboxymethylcellulose (CMC)) was 101 % of control.

For the compound `CCSc1ncc(Br)c(Sc2nc(N)nc3nc[nH]c23)n1`, the T/C (dose: 1.5 mg/kg/injection, schedule: Q01DX015 (ip), vehicle: carboxymethylcellulose (CMC)) was 112 % of control; the T/C (dose: 3.0 mg/kg/injection, schedule: Q01DX015 (ip), vehicle: carboxymethylcellulose (CMC)) was 115 % of control; the T/C (dose: 6.0 mg/kg/injection, schedule: Q01DX015 (ip), vehicle: carboxymethylcellulose (CMC)) was 100 % of control; the T/C (dose: 12.5 mg/kg/injection, schedule: Q01DX015 (ip), vehicle: carboxymethylcellulose (CMC)) was 100 % of control.

On to `O=C(Nc1ccc(C2=NCCN2)cc1)c1ccc(C(=O)Nc2ccc(C3=NCCN3)cc2)c(Cl)c1`, for which the T/C by setting is: (dose: 1.7 mg/kg/injection, schedule: Q01DX015 (ip), vehicle: carboxymethylcellulose (CMC)) 110 % of control; (dose: 2.6 mg/kg/injection, schedule: Q01DX015 (ip), vehicle: carboxymethylcellulose (CMC)) 107 % of control; (dose: 3.8 mg/kg/injection, schedule: Q01DX015 (ip), vehicle: carboxymethylcellulose (CMC)) 97 % of control; (dose: 4.4 mg/kg/injection, schedule: Q01DX015 (ip), vehicle: carboxymethylcellulose (CMC)) 121 % of control; (dose: 5.3 mg/kg/injection, schedule: Q01DX015 (ip), vehicle: carboxymethylcellulose (CMC)) 89 % of control; (dose: 6.5 mg/kg/injection, schedule: Q01DX015 (ip), vehicle: carboxymethylcellulose (CMC)) 253 % of control. In addition, the T/C by setting is: (dose: 7.0 mg/kg/injection, schedule: Q01DX015 (ip), vehicle: carboxymethylcellulose (CMC)) 108 % of control; (dose: 8.0 mg/kg/injection, schedule: Q01DX015 (ip), vehicle: carboxymethylcellulose (CMC)) 122 % of control; (dose: 8.7 mg/kg/injection, schedule: Q01DX015 (ip), vehicle: carboxymethylcellulose (CMC)) 157 % of control; (dose: 12.0 mg/kg/injection, schedule: Q01DX015 (ip), vehicle: carboxymethylcellulose (CMC)) 90 % of control; (dose: 13.0 mg/kg/injection, schedule: Q02DX010 (ip), vehicle: carboxymethylcellulose (CMC)) 191 % of control; (dose: 15.0 mg/kg/injection, schedule: Q01DX010 (ip), vehicle: carboxymethylcellulose (CMC)) 170 % of control. Besides, the T/C is 168 % of control (dose: 15.0 mg/kg/injection, schedule: Q01DX015 (ip), vehicle: carboxymethylcellulose (CMC)); 108 % of control (dose: 18.0 mg/kg/injection, schedule: Q01DX015 (ip), vehicle: carboxymethylcellulose (CMC)); 181 % of control (dose: 20.0 mg/kg/injection, schedule: Q01DX010 (ip), vehicle: carboxymethylcellulose (CMC)); 166 % of control and 187 % of control (dose: 20.0 mg/kg/injection, schedule: Q01DX015 (ip), vehicle: carboxymethylcellulose (CMC)); 154 % of control (dose: 22.5 mg/kg/injection, schedule: Q01DX015 (ip), vehicle: carboxymethylcellulose (CMC)); 214 % of control (dose: 26.0 mg/kg/injection, schedule: Q01DX015 (ip), vehicle: carboxymethylcellulose (CMC)). Besides, the T/C (dose: 27.0 mg/kg/injection, schedule: Q01DX015 (ip), vehicle: carboxymethylcellulose (CMC)) is 90 % of control; the T/C (dose: 30.0 mg/kg/injection, schedule: Q02DX010 (ip), vehicle: carboxymethylcellulose (CMC)) is 223 % of control; the T/C (dose: 45.0 mg/kg/injection, schedule: Q02DX010 (ip), vehicle: carboxymethylcellulose (CMC)) is 188 % of control.

In the case of `OCC1OC(n2cnc3c(=S)nc[nH]c32)C(O)C1O` (centres undefined), the T/C by setting is: under setting [1], 114 % of control; (dose: 50.0 mg/kg/injection, schedule: Q01DX015 (ip), vehicle: carboxymethylcellulose (CMC)) 93 % of control; (dose: 75.0 mg/kg/injection, schedule: Q01DX015 (ip), vehicle: carboxymethylcellulose (CMC)) 93 % of control; under setting [2], 92 % of control; (dose: 100.0 mg/kg/injection, schedule: Q01DX015 (ip), vehicle: carboxymethylcellulose (CMC)) 94 % of control; (dose: 112.0 mg/kg/injection, schedule: Q01DX010 (ip), vehicle: carboxymethylcellulose (CMC)) 94 % of control. Also, the T/C is, setting by setting: (dose: 120.0 mg/kg/injection, schedule: Q01DX001 (ip), vehicle: carboxymethylcellulose (CMC)) 100 % of control; (dose: 125.0 mg/kg/injection, schedule: Q01DX015 (ip), vehicle: carboxymethylcellulose (CMC)) 90 % of control; (dose: 150.0 mg/kg/injection, schedule: Q01DX010 (ip), vehicle: carboxymethylcellulose (CMC)) 90 % of control; (dose: 150.0 mg/kg/injection, schedule: Q01DX015 (ip), vehicle: carboxymethylcellulose (CMC)) 95 % of control; (dose: 150.0 mg/kg/injection, schedule: Q01DX Z (ip), vehicle: carboxymethylcellulose (CMC)) 97 % of control; (dose: 180.0 mg/kg/injection, schedule: Q01DX001 (ip), vehicle: alkali diluted with saline) 110 % of control. Further, the T/C is 100 % of control (dose: 180.0 mg/kg/injection, schedule: Q01DX001 (ip), vehicle: carboxymethylcellulose (CMC)); 88 % of control (dose: 225.0 mg/kg/injection, schedule: Q01DX010 (ip), vehicle: carboxymethylcellulose (CMC)); 103 % of control (dose: 270.0 mg/kg/injection, schedule: Q01DX001 (ip), vehicle: alkali diluted with saline); 100 % of control (dose: 270.0 mg/kg/injection, schedule: Q01DX001 (ip), vehicle: carboxymethylcellulose (CMC)); 91 % of control (dose: 300.0 mg/kg/injection, schedule: Q01DX010 (ip), vehicle: carboxymethylcellulose (CMC)); 92 % of control (dose: 300.0 mg/kg/injection, schedule: Q01DX Z (ip), vehicle: carboxymethylcellulose (CMC)). Besides, the T/C reads like this: (dose: 400.0 mg/kg/injection, schedule: Q01DX001 (ip), vehicle: alkali diluted with saline) 99 % of control; (dose: 400.0 mg/kg/injection, schedule: Q01DX001 (ip), vehicle: carboxymethylcellulose (CMC)) 96 % of control; (dose: 600.0 mg/kg/injection, schedule: Q01DX001 (ip), vehicle: alkali diluted with saline) 102 % of control; (dose: 600.0 mg/kg/injection, schedule: Q01DX001 (ip), vehicle: carboxymethylcellulose (CMC)) 101 % of control; (dose: 900.0 mg/kg/injection, schedule: Q01DX001 (ip), vehicle: alkali diluted with saline) 100 % of control.
